Data reported in ChEMBL document CHEMBL3627608, “Crystal structures of human RIP2 kinase catalytic domain complexed with ATP-competitive inhibitors: Foundations for understanding inhibitor selectivity” (Bioorg Med Chem, 2015).

Assays:
[1] = biological target: Death-associated protein kinase 3 (Homo sapiens) (UniProt O43293); experiment: Inhibition of ZIPK (unknown origin) at 10 uM after 120 mins P33 radiolabeled kinase activity assay
[2] = biological target: Receptor tyrosine-protein kinase erbB-2 (Homo sapiens) (UniProt P04626); experiment: Inhibition of ERBB2 (unknown origin) at 10 uM after 120 mins P33 radiolabeled kinase activity assay
[3] = biological target: T1, Mitogen-activated protein kinase 13 (Homo sapiens) (UniProt O15264); experiment: Inhibition of P38delta (unknown origin) at 10 uM after 120 mins P33 radiolabeled kinase activity assay
T1 sequence (whole entry): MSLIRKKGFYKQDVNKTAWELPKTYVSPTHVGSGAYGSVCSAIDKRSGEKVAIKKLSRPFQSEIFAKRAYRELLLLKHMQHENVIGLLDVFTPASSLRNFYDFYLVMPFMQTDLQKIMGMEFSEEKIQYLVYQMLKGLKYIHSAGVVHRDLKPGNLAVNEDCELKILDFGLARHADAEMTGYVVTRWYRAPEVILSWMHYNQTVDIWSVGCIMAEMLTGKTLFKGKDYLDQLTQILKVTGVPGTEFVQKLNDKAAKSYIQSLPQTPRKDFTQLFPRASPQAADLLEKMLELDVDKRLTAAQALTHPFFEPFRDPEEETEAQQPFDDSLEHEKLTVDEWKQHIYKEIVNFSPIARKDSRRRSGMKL

[4] = biological target: Protein kinase C alpha type (Homo sapiens) (UniProt P17252); experiment: Inhibition of PKCalpha (unknown origin) at 10 uM after 120 mins P33 radiolabeled kinase activity assay
[5] = biological target: G protein-coupled receptor kinase 5 (Homo sapiens) (UniProt P34947); experiment: Inhibition of GRK5 (unknown origin) at 10 uM after 120 mins P33 radiolabeled kinase activity assay
[6] = biological target: T2, Dual specificity tyrosine-phosphorylation-regulated kinase 3 (Homo sapiens) (UniProt O43781); experiment: Inhibition of DYRK3 (unknown origin) at 10 uM after 120 mins P33 radiolabeled kinase activity assay
T2 sequence (whole entry): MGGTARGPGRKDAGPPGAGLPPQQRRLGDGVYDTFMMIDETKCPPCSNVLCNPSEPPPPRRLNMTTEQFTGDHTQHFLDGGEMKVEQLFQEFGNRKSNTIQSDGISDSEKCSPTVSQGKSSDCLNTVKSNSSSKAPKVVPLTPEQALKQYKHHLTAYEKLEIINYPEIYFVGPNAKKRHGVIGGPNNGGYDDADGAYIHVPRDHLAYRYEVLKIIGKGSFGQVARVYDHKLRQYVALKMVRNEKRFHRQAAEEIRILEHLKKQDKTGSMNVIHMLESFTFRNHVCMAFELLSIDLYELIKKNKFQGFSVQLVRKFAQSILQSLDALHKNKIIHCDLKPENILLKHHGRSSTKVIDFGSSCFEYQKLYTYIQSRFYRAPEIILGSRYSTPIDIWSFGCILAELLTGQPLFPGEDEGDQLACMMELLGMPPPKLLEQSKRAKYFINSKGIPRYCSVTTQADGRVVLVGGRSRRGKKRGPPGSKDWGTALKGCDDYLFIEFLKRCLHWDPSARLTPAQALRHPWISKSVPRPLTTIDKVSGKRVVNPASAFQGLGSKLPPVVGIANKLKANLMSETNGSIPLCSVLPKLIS

[7] = biological target: T3, Dual specificity mitogen-activated protein kinase kinase 7 (Homo sapiens) (UniProt O14733); experiment: Inhibition of MKK7 (unknown origin) at 10 uM after 120 mins P33 radiolabeled kinase activity assay
T3 sequence (whole entry): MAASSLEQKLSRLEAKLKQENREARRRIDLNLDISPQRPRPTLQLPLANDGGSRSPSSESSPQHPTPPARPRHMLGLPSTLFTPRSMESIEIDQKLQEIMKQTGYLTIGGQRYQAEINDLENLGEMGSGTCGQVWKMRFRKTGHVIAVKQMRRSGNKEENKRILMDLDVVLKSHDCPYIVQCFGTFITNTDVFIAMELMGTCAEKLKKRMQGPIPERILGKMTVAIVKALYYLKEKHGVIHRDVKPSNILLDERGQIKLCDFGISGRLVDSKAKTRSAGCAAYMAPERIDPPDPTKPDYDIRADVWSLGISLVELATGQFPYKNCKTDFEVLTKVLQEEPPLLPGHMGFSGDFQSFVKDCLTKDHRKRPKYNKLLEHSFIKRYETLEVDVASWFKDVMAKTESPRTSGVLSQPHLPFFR

[8] = biological target: T4, Calcium/calmodulin-dependent protein kinase type IV (Homo sapiens) (UniProt Q16566); experiment: Inhibition of CAMK4 (unknown origin) at 10 uM after 120 mins P33 radiolabeled kinase activity assay
T4 sequence (whole entry): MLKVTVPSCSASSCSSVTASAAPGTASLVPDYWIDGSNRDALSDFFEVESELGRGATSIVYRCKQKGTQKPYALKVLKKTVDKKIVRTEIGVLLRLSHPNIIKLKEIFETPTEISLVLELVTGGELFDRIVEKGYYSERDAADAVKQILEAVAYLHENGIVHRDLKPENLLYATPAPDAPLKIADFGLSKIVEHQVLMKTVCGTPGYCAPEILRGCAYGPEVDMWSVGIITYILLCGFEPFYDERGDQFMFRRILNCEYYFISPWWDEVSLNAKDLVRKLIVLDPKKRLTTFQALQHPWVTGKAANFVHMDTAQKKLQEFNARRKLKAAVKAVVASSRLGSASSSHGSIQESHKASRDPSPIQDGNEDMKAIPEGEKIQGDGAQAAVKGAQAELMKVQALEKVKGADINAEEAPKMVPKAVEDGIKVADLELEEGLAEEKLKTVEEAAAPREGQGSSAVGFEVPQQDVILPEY

[9] = biological target: RAC-beta serine/threonine-protein kinase (Homo sapiens) (UniProt P31751); experiment: Inhibition of AKT2 (unknown origin) at 10 uM after 120 mins P33 radiolabeled kinase activity assay
[10] = biological target: Tyrosine-protein kinase CSK (Homo sapiens) (UniProt P41240); experiment: Inhibition of CSK (unknown origin) at 10 uM after 120 mins P33 radiolabeled kinase activity assay
Tyrosine-protein kinase CSK (Homo sapiens), sequence (P41240 2-450 limits assumed): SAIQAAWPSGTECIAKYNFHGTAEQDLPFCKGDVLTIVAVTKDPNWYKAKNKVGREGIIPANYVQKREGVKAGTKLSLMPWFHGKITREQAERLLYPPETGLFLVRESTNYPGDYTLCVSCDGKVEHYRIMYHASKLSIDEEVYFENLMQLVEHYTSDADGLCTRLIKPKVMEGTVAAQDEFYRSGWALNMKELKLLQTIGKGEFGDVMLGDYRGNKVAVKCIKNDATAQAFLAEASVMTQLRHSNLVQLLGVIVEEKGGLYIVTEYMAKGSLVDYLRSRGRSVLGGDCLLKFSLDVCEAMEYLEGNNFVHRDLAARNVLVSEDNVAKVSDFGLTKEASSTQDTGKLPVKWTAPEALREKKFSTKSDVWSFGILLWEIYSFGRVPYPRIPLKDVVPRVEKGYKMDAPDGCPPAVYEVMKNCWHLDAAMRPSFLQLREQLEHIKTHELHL

Receptor tyrosine-protein kinase erbB-2 (Homo sapiens), sequence (P04626 whole entry): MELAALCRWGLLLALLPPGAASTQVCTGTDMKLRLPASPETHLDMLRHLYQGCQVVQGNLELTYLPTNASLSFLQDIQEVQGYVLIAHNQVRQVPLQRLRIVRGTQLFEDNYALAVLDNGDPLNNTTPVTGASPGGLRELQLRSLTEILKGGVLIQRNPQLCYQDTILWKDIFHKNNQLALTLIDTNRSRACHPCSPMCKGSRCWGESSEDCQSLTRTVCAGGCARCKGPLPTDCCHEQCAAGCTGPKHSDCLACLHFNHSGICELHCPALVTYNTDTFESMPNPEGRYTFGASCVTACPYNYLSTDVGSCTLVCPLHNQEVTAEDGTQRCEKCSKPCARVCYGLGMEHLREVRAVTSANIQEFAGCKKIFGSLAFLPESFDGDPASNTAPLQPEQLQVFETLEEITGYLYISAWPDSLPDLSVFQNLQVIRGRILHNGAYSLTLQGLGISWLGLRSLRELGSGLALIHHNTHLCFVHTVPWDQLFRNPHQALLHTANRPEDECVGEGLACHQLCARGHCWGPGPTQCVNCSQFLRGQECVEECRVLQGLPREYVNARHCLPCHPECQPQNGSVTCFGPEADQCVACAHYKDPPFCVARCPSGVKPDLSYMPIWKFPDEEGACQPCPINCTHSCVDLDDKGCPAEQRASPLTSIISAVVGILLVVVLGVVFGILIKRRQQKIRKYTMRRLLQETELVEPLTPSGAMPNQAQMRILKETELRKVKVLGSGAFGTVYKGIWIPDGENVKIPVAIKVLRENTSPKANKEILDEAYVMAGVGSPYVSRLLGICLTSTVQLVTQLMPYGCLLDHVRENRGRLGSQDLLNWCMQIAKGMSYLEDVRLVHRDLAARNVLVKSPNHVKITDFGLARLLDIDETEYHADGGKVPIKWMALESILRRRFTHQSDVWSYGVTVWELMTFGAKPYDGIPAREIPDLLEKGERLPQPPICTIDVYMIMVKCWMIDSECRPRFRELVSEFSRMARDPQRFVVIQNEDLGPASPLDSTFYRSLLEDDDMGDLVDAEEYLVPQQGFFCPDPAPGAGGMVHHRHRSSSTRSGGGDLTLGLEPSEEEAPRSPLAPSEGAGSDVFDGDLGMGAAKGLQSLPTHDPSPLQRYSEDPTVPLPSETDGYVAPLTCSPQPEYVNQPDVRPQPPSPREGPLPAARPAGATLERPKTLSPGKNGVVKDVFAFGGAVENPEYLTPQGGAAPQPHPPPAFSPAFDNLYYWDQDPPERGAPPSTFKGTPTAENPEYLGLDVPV
RAC-beta serine/threonine-protein kinase (Homo sapiens), sequence (P31751 whole entry): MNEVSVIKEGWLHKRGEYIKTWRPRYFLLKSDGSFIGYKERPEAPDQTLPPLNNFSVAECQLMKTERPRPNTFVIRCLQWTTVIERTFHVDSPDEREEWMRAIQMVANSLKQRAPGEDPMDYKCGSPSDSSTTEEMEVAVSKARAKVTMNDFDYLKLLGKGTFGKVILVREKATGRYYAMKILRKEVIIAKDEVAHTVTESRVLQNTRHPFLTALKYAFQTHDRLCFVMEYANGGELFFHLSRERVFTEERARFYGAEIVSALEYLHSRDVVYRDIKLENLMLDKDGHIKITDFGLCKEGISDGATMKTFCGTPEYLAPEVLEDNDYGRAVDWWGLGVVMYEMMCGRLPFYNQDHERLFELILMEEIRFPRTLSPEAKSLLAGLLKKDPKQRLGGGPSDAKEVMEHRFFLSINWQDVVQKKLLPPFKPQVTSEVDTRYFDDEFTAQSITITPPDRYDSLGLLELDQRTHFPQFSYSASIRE
G protein-coupled receptor kinase 5 (Homo sapiens), sequence (P34947 whole entry, looked up): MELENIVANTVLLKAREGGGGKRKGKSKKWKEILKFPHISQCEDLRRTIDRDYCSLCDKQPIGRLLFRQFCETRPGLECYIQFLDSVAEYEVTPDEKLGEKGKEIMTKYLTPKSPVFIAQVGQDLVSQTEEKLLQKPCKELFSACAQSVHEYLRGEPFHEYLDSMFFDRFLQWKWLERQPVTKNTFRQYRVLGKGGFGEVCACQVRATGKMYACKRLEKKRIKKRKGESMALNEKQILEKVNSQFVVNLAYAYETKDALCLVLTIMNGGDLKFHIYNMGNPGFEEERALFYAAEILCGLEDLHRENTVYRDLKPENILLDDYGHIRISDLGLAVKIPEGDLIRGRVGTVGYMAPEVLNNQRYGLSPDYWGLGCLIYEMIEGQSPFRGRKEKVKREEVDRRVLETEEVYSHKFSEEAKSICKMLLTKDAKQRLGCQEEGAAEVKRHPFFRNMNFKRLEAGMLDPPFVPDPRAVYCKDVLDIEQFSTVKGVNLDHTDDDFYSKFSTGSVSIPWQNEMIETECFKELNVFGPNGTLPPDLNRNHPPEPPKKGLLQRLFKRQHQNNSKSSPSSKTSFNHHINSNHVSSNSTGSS
Death-associated protein kinase 3 (Homo sapiens), sequence (O43293 whole entry, looked up): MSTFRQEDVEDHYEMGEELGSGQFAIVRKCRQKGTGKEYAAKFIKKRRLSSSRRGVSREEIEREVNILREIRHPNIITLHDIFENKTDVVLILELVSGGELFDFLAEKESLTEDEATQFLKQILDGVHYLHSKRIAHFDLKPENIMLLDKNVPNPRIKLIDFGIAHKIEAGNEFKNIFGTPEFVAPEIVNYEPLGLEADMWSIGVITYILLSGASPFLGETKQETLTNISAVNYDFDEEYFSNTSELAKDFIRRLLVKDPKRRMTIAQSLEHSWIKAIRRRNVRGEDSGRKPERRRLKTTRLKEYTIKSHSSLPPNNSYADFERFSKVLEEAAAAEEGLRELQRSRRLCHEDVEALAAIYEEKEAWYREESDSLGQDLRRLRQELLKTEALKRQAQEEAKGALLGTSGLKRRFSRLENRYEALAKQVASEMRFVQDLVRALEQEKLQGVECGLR

inhibition [2] [%]	inhibition [3] [%]	inhibition [4] [%]	inhibition [5] [%]	inhibition [6] [%]	inhibition [7] [%]	inhibition [8] [%]	inhibition [9] [%]	inhibition [10] [%]	SMILES	inhibition [1] [%]
2.53	3.01	-4.59	-6.1	8.42	2	6.98	18.9	15.6	COCCNC(=O)c1ccc2c(c1)nc(-c1cnc(-c3ccc(Cl)cc3)[nH]1)n2CCOC	3.1
95.3	2	-5.32	-3.67	10.3	7.17	29.4	21.6	100	CS(=O)(=O)c1cccc(Nc2nccc(-c3sc(N4CCOCC4)nc3-c3cccc(NS(=O)(=O)c4c(F)cccc4F)c3)n2)c1	50.7
-7.24	93.4	-7.51	-7.31	71.4	22.7	15.2	20.6	78.4	CC(C)(C)c1cc(NC(=O)Nc2ccc(Oc3ccncc3)cc2)no1	35.6
